Seven compounds from PubChem BioAssay (NCI) can be followed below.

SMILES strings stand for the structures. Values joined by “and” are separate entries in the source; they are usually repeats but may differ in a detail not shown here. Equal values may be shown once.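 Test compounds were applied to cells in 96-well plates for 48 hours at 5 doses. The concentration for 50% growth inhibition is given as GI50. Definition used: TGI = concentration required for complete inhibition of growth.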

Among the test systems are BT-549 breast; CCRF-CEM leukemia; COLO 205 colon; EKVX NSCLC; HT29 colon; KM12 colon; M14 melanoma; NCI-H460 lung; SN12C renal; T-47D breast.
Holding throughout (test): NCI tumour cell line growth inhibition, 48 h

Turning to `C#C[C@@]1(O)[C@@H](CO)O[C@@H](n2cc(Br)c3c(Cl)ccnc32)[C@@H]1O`, the GI50 in the assay on BT-549 breast was 0.522 µM; with CCRF-CEM leukemia, 0.386 µM; with COLO 205 colon it was 0.881 µM; in the assay with EKVX NSCLC, 17.3 µM; in the assay with HT29 colon, 0.964 µM; with KM12 colon, 45.2 µM. For the same compound, the GI50 is 17 µM in the assay on M14 melanoma, 4.29 µM with NCI-H460 lung, 0.59 µM in the assay with SN12C renal and 0.394 µM in the assay on T-47D breast. The TGI in the assay on BT-549 breast was 12.2 µM; with CCRF-CEM leukemia it was above 100 µM; with COLO 205 colon, above 100 µM; with EKVX NSCLC it was above 100 µM; in the assay with HT29 colon, above 100 µM; with KM12 colon, above 100 µM. For the same compound, the TGI was above 100 µM in the assay with M14 melanoma, above 100 µM in the assay on NCI-H460 lung, above 100 µM in the assay with SN12C renal and above 19.9 µM in the assay with T-47D breast.

Turning to `Cc1nc2sc(C(=O)Nc3cccc(Br)c3C)c(N)c2cc1C(O)c1ccccc1` (stereo not drawn), the GI50 in the assay with BT-549 breast was 0.044 µM; with CCRF-CEM leukemia, 0.0406 µM; in the assay with COLO 205 colon it was 0.0464 µM; in the assay with EKVX NSCLC, 0.283 µM; with HT29 colon, 0.0374 µM; in the assay on KM12 colon, 0.0373 µM. For the same compound, the GI50 in the assay with M14 melanoma is 0.0306 µM; in the assay with NCI-H460 lung, 0.0342 µM; in the assay on SN12C renal, 0.0581 µM; in the assay on T-47D breast, 0.0554 µM. Moreover, the TGI with BT-549 breast is 2.93 µM; in the assay on CCRF-CEM leukemia it was above 100 µM; in the assay with COLO 205 colon it was 1.07 µM; in the assay with EKVX NSCLC, 43.8 µM; with HT29 colon it was 12.7 µM; with KM12 colon, 4.76 µM. Also, the TGI in the assay on M14 melanoma amounted to 14.7 µM; in the assay on NCI-H460 lung, 0.156 µM; with SN12C renal, 6.04 µM; with T-47D breast it was 67.7 µM.

For `Cn1c(CCCC(=O)O)nc2cc(N(CCCl)CCCl)ccc21`, the GI50 in the assay with BT-549 breast was above 77.5 µM; in the assay on CCRF-CEM leukemia, 28.1 µM; in the assay with COLO 205 colon it was above 95.8 µM; in the assay on EKVX NSCLC, above 100 µM; with HT29 colon, above 100 µM; in the assay on KM12 colon it was above 100 µM. In addition, the GI50 with M14 melanoma is above 65.5 µM; in the assay with NCI-H460 lung, 58.7 µM; in the assay with SN12C renal it was 45.1 µM; in the assay on T-47D breast, 56.2 µM. The TGI was above 100 µM in the assay on BT-549 breast; above 77.7 µM in the assay with CCRF-CEM leukemia; above 100 µM in the assay on COLO 205 colon; above 100 µM with EKVX NSCLC; above 100 µM in the assay with HT29 colon; above 100 µM in the assay on KM12 colon. The TGI in the assay on M14 melanoma, with NCI-H460 lung, with SN12C renal and with T-47D breast was above 100 µM in each case.

As for `Cc1cc(O)ccc1C1=NN(c2ccc(S(N)(=O)=O)cc2)C(=O)CC1`, the GI50 with BT-549 breast was 1.49 µM; in the assay with CCRF-CEM leukemia, 9.88 µM and 10.5 µM; in the assay on COLO 205 colon, 8.8 µM and 36.6 µM; with EKVX NSCLC, 3.87 µM and 19.2 µM; in the assay on HT29 colon it was 2.52 µM and 4.65 µM; in the assay on KM12 colon, 2.89 µM and 6.49 µM. Besides, the GI50 was 2.55 µM and 4.48 µM in the assay with M14 melanoma; 2.19 µM and 6.16 µM in the assay on NCI-H460 lung; 6.68 µM and 42.6 µM in the assay on SN12C renal; 3.23 µM and 13.1 µM in the assay with T-47D breast. Further, the TGI was 43.6 µM with BT-549 breast; 50 µM and > 100 µM in the assay with CCRF-CEM leukemia; 50 µM and > 100 µM with COLO 205 colon; 50 µM and > 100 µM with EKVX NSCLC; 50 µM and > 100 µM with HT29 colon; 50 µM and > 100 µM in the assay with KM12 colon. The TGI in the assay on M14 melanoma was 50 µM and 81.4 µM; in the assay on NCI-H460 lung it was 50 µM and > 100 µM; with SN12C renal it was 50 µM and > 100 µM; in the assay on T-47D breast, 50 µM and > 100 µM.

As for `COC(=O)c1c[nH]c2cc(OC(C)C)c(OC(C)C)cc2c1=O`, the GI50 with BT-549 breast, with CCRF-CEM leukemia, in the assay with COLO 205 colon, in the assay with EKVX NSCLC, in the assay with HT29 colon and in the assay on KM12 colon was above 100 µM in each case. For the same compound, the GI50 with M14 melanoma, with NCI-H460 lung, with SN12C renal and in the assay on T-47D breast was above 100 µM in each case. Also, the TGI in the assay with BT-549 breast, in the assay on CCRF-CEM leukemia, in the assay with COLO 205 colon, in the assay on EKVX NSCLC, with HT29 colon and with KM12 colon was above 100 µM in each case. Moreover, the TGI in the assay on M14 melanoma, in the assay on NCI-H460 lung, in the assay with SN12C renal and in the assay on T-47D breast was above 100 µM each time.

Turning to `O=C(Nc1ccncc1)C(=O)c1cn(S(=O)(=O)c2cccc(Cl)c2)c2ccccc12`, the GI50 in the assay on BT-549 breast was 5.85 µM; in the assay on COLO 205 colon it was 24.8 µM; with EKVX NSCLC it was 5.16 µM; in the assay on HT29 colon, 3.62 µM; in the assay with KM12 colon, 3.96 µM; in the assay on M14 melanoma, 4.09 µM. Besides, the GI50 with NCI-H460 lung was 20 µM; with SN12C renal, 13 µM; in the assay with T-47D breast, 9.08 µM. In addition, the TGI in the assay with BT-549 breast was 38.3 µM; in the assay with COLO 205 colon, 70.3 µM; with EKVX NSCLC, above 100 µM; in the assay with HT29 colon, above 100 µM; in the assay with KM12 colon it was above 100 µM; in the assay on M14 melanoma it was 32.6 µM. For the same compound, the TGI in the assay with NCI-H460 lung, in the assay with SN12C renal and in the assay with T-47D breast was above 100 µM each time.

Take `CN(C)c1ccc(/C=C(\C#N)c2cc3ccccc3[nH]2)cc1`: the GI50 in the assay on BT-549 breast was 3.86 µM; in the assay with CCRF-CEM leukemia, 0.813 µM; in the assay with COLO 205 colon, 0.566 µM; in the assay on EKVX NSCLC, 2.94 µM; in the assay on HT29 colon it was 0.375 µM; in the assay on KM12 colon, 0.495 µM. The GI50 was 0.551 µM in the assay on M14 melanoma, 0.476 µM in the assay on NCI-H460 lung, 2.37 µM with SN12C renal and 0.585 µM in the assay on T-47D breast. The TGI with BT-549 breast was above 100 µM; with CCRF-CEM leukemia, 14.3 µM; in the assay on COLO 205 colon, 7.39 µM; in the assay on EKVX NSCLC, above 100 µM; in the assay on HT29 colon it was 15.9 µM; in the assay on KM12 colon, above 100 µM. Moreover, the TGI with M14 melanoma, with NCI-H460 lung, in the assay on SN12C renal and with T-47D breast was above 100 µM throughout.
